The results in this text go back to PubChem BioAssay AID296 (DTP/NCI, 2004).

For the assay, the system named is MX-1 breast xenograft, nude mice, tumor weight T/C. As to the kind of experiment: NCI In Vivo Anticancer Drug Screen. Data for tumor model Human Mammary Carcinoma MX-1 Xenograft (intrarenal inoculation) in NU/NU Swiss (nude) mice. The settings on record: endpoint: mean tumor weight change, higher = larger tumour. In short, it runs like this:
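Read-out: treated (T) over vehicle control (C) ratio of survival or tumor size. Dosing in animals carrying the transplanted tumor.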

[1] abbreviates: dose: 300.0 mg/kg/injection, schedule: Q04DX003 (sc), vehicle: saline with Tween-80.
The mark [2] stands for this setting: dose: 600.0 mg/kg/injection, schedule: Q04DX003 (sc), vehicle: saline with Tween-80.
[3] abbreviates: dose: 1200.0 mg/kg/injection, schedule: Q04DX003 (sc), vehicle: saline with Tween-80.
Where [4] appears, read: dose: 2400.0 mg/kg/injection, schedule: Q04DX003 (sc), vehicle: saline with Tween-80.
The mark [5] stands for this setting: dose: 600.0 mg/kg/injection, schedule: Q04DX003 (sc), vehicle: Klucel (hydroxypropylcellulose) (HPC).
Where [6] appears, read: dose: 2400.0 mg/kg/injection, schedule: Q04DX003 (sc), vehicle: Klucel (hydroxypropylcellulose) (HPC).
Setting [7] is: dose: 300.0 mg/kg/injection, schedule: Q04DX003 (sc), vehicle: Klucel (hydroxypropylcellulose) (HPC).
The mark [8] stands for this setting: dose: 1200.0 mg/kg/injection, schedule: Q04DX003 (sc), vehicle: Klucel (hydroxypropylcellulose) (HPC).

Each structure is given as a SMILES string. Several values for one entry are separate records, joined by “and”; a condition that tells them apart may be missing. Identical values can stand only once. Inconclusive results are not listed.

Consider `CCCCCCCCNc1cc2c3c(c1)CCCN3CCC2`, for which the T/C reads like this: (dose: 3.0 mg/kg/injection, schedule: Q04DX003 (sc), vehicle: Klucel (hydroxypropylcellulose) (HPC)) 110 % of control; (dose: 6.0 mg/kg/injection, schedule: Q04DX003 (sc), vehicle: Klucel (hydroxypropylcellulose) (HPC)) 74 % of control; (dose: 12.0 mg/kg/injection, schedule: Q04DX003 (sc), vehicle: Klucel (hydroxypropylcellulose) (HPC)) 108 % of control; (dose: 24.0 mg/kg/injection, schedule: Q04DX003 (sc), vehicle: Klucel (hydroxypropylcellulose) (HPC)) 51 % of control.

Consider `Cc1cc2c(c3oc(C4(C)OC4C4OC4C)cc(=O)c13)C(=O)c1c(O)c(C3CC(C)(N(C)C)C(O)C(C)O3)cc(C3CC(N(C)C)C(O)C(C)O3)c1C2=O` (stereo not given), for which the T/C was 77 % of control (dose: 0.05 mg/kg/injection, schedule: Q04DX003 (sc), vehicle: saline) and 30 % of control (dose: 0.1 mg/kg/injection, schedule: Q04DX003 (sc), vehicle: saline).

For the compound `CCCCCCOC(CN(C)C)C(Cl)(Cl)Cl` (stereo not given), the T/C reads like this: under setting [1], 70 % of control; under setting [2], 69 % of control; under setting [3], 71 % of control; under setting [4], 58 % of control.

`CN=C(N)N/N=C(\c1ccccc1)c1ccc(Br)cc1`: the T/C (dose: 25.0 mg/kg/injection, schedule: Q04DX003 (sc), vehicle: saline with Tween-80) is 101 % of control; the T/C (dose: 50.0 mg/kg/injection, schedule: Q04DX003 (sc), vehicle: saline with Tween-80) is 163 % of control; the T/C (dose: 100.0 mg/kg/injection, schedule: Q04DX003 (sc), vehicle: saline with Tween-80) is 78 % of control.

For the compound `CCCCCC(=O)O[C@]1(C(C)=O)CC[C@H]2[C@@H]3CCC4=CC(=O)CC[C@]4(C)[C@H]3CC[C@@]21C`, the T/C under setting [5] was 98 % of control and the T/C under setting [6] is 85 % of control.

With `O=C(NC1CCCCC1)OCc1c(COC(=O)NC2CCCCC2)c(-c2ccc(Cl)c(Cl)c2)n2c1CCC2`, the T/C under setting [1] was 114 % of control, the T/C under setting [2] was 114 % of control, the T/C under setting [3] was 107 % of control and the T/C under setting [4] was 109 % of control.

On to `C[C@@]1(CO)[C@H](O)CC[C@@]2(C)[C@H]1CC[C@H]1C[C@@H]3C[C@@]12CC[C@@]3(O)COC(=O)CN`, for which the T/C runs as follows: (dose: 125.0 micrograms/kg/injection, schedule: Q04DX003 (sc), vehicle: saline + alcohol) 102 % of control; (dose: 250.0 micrograms/kg/injection, schedule: Q04DX003 (sc), vehicle: saline + alcohol) 34 % of control; (dose: 500.0 micrograms/kg/injection, schedule: Q04DX003 (sc), vehicle: saline + alcohol) 55 % of control; (dose: 1000.0 micrograms/kg/injection, schedule: Q04DX003 (sc), vehicle: saline + alcohol) 70 % of control.

For the compound `CC(C)(C)c1ccc(CN2CCN(C(c3ccccc3)c3ccc(Cl)cc3)CC2)cc1` (stereo not given), the T/C is 96 % of control (dose: 4.5 mg/kg/injection, schedule: Q01DX010 (sc), vehicle: Klucel (hydroxypropylcellulose) (HPC)); 101 % of control (dose: 9.0 mg/kg/injection, schedule: Q01DX010 (sc), vehicle: Klucel (hydroxypropylcellulose) (HPC)); 117 % of control (dose: 18.0 mg/kg/injection, schedule: Q01DX010 (sc), vehicle: Klucel (hydroxypropylcellulose) (HPC)); 101 % of control (dose: 36.0 mg/kg/injection, schedule: Q01DX010 (sc), vehicle: Klucel (hydroxypropylcellulose) (HPC)); 102 % of control under setting [7]; 106 % of control under setting [5]. In addition, under setting [8], the T/C is 100 % of control.

For `CCC(=O)O[C@H]1CC[C@H]2[C@@H]3CCC4=CC(=O)CC[C@]4(C)[C@H]3CC[C@]12C`, the T/C was 76 % of control under setting [7], 88 % of control under setting [5], 74 % of control under setting [8] and 115 % of control under setting [6].

For the compound `C[C@@H]1C[C@@H]([C@H](O)CC2CC(=O)NC(=O)C2)C(=O)[C@@H](C)C1`, the T/C is 105 % of control (dose: 37.5 mg/kg/injection, schedule: Q04DX003 (sc), vehicle: saline); 69 % of control (dose: 75.0 mg/kg/injection, schedule: Q04DX003 (sc), vehicle: saline); 97 % of control (dose: 150.0 mg/kg/injection, schedule: Q04DX003 (sc), vehicle: saline).

Regarding `O=C(O)CSc1nc(-c2ccccc2)c(-c2ccccc2)n1-c1ccccn1`, the T/C is 196 % of control (dose: 50.0 mg/kg/injection, schedule: Q01DX010 (sc), vehicle: water); 50 % of control (dose: 100.0 mg/kg/injection, schedule: Q01DX010 (sc), vehicle: water); 78 % of control (dose: 200.0 mg/kg/injection, schedule: Q01DX010 (sc), vehicle: water).

With `O=C1NC(c2ccccc2)N=C2Oc3ccccc3C=C12` (stereo not given), the T/C was 57 % of control (dose: 50.0 mg/kg/injection, schedule: Q01DX008 (sc), vehicle: saline with Tween-80); 71 % of control (dose: 100.0 mg/kg/injection, schedule: Q01DX008 (sc), vehicle: saline with Tween-80); 56 % of control (dose: 200.0 mg/kg/injection, schedule: Q01DX008 (sc), vehicle: saline with Tween-80); 80 % of control (dose: 400.0 mg/kg/injection, schedule: Q01DX008 (sc), vehicle: saline with Tween-80).

In the case of `O=c1[nH]c(=O)n(C2CC(O)C(CO)O2)cc1Br` (stereo not given), the T/C reads like this: under setting [5], 91 % of control; under setting [8], 80 % of control; under setting [6], 59 % of control; (dose: 4800.0 mg/kg/injection, schedule: Q04DX003 (sc), vehicle: Klucel (hydroxypropylcellulose) (HPC)) 27 % of control.

As to `CCN1C=C/C(=C\C=C/c2cc[n+](CC)c3ccccc23)c2ccccc21`, the T/C (dose: 0.25 mg/kg/injection, schedule: Q01DX010 (sc), vehicle: saline) is 111 % of control; the T/C (dose: 0.5 mg/kg/injection, schedule: Q01DX010 (sc), vehicle: saline) is 173 % of control; the T/C (dose: 1.0 mg/kg/injection, schedule: Q01DX010 (sc), vehicle: saline) is 82 % of control.

With `OC(CCl)CN1CC[N+]2(CC1)CC[N+]1(CCN(CC(O)CCl)CC1)CC2` (stereo not given), the T/C (dose: 8.0 mg/kg/injection, schedule: Q01DX010 (sc), vehicle: water) is 117 % of control; the T/C (dose: 32.0 mg/kg/injection, schedule: Q01DX010 (ip), vehicle: water) was 90 % of control; the T/C (dose: 64.0 mg/kg/injection, schedule: Q01DX010 (ip), vehicle: water) was 88 % of control; the T/C (dose: 64.0 mg/kg/injection, schedule: Q01DX010 (sc), vehicle: water) is 92 % of control and 94 % of control; the T/C (dose: 106.66 mg/kg/injection, schedule: Q04DX003 (ip), vehicle: water) was 30 % of control; the T/C (dose: 106.66 mg/kg/injection, schedule: Q04DX003 (sc), vehicle: water) is 45 % of control. Also, the T/C was 21 % of control (dose: 128.0 mg/kg/injection, schedule: Q01DX010 (ip), vehicle: water); 52 % of control (dose: 213.33 mg/kg/injection, schedule: Q04DX003 (ip), vehicle: water); 59 % of control (dose: 213.33 mg/kg/injection, schedule: Q04DX003 (sc), vehicle: water); 27 % of control (dose: 256.0 mg/kg/injection, schedule: Q01DX010 (ip), vehicle: water); 26 % of control (dose: 426.65 mg/kg/injection, schedule: Q04DX003 (ip), vehicle: water); 49 % of control (dose: 426.65 mg/kg/injection, schedule: Q04DX003 (sc), vehicle: water). Besides, the T/C (dose: 512.0 mg/kg/injection, schedule: Q01DX010 (sc), vehicle: water) is 25 % of control.

For the compound `COc1cc(C)c(C2NC(=O)c3ccccc3N2)cc1C` (stereo not given), the T/C is 53 % of control under setting [7], 115 % of control under setting [5], 93 % of control under setting [8] and 90 % of control under setting [6].

Turning to `CN1CCN(Cc2nc3cccc4c3c([n+]2[O-])-c2ccccc2-4)CC1`, the T/C is 72 % of control (dose: 12.5 mg/kg/injection, schedule: Q01DX010 (sc), vehicle: saline with Tween-80); 96 % of control (dose: 25.0 mg/kg/injection, schedule: Q01DX010 (sc), vehicle: saline with Tween-80); 35 % of control (dose: 400.0 mg/kg/injection, schedule: Q01DX010 (sc), vehicle: saline with Tween-80).

Consider `Cn1cnc([N+](=O)[O-])c1SCC(=O)O`, for which the T/C by setting is: (dose: 300.0 mg/kg/injection, schedule: Q04DX003 (sc), vehicle: saline) 80 % of control; (dose: 600.0 mg/kg/injection, schedule: Q04DX003 (sc), vehicle: saline) 43 % of control; (dose: 1200.0 mg/kg/injection, schedule: Q04DX003 (sc), vehicle: saline) 88 % of control; (dose: 2400.0 mg/kg/injection, schedule: Q04DX003 (sc), vehicle: saline) 71 % of control.
